molecular target: T1, human Nav1.7 channels (Homo sapiens, UniProt Q15858); experiment: FRET assay, human Nav1.7 (EFS on FDSS); assay type: cell-based; conditions: CHO cells expressing human Nav1.7, read-out: IC50 against Nav1.7
T1 construct: expressed in transfected cells; host or cells: CHO
Summary of the method: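 IC50 was derived from normalized 440 nm fluorescence ratios of the EFS-evoked membrane-potential response read on FDSS. Recombinant CHO cells were sequentially dye-loaded with coumarin/oxonol FRET pair at room temperature in pH 7.4 buffer before compound addition.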

T1 sequence (Q15858 whole entry): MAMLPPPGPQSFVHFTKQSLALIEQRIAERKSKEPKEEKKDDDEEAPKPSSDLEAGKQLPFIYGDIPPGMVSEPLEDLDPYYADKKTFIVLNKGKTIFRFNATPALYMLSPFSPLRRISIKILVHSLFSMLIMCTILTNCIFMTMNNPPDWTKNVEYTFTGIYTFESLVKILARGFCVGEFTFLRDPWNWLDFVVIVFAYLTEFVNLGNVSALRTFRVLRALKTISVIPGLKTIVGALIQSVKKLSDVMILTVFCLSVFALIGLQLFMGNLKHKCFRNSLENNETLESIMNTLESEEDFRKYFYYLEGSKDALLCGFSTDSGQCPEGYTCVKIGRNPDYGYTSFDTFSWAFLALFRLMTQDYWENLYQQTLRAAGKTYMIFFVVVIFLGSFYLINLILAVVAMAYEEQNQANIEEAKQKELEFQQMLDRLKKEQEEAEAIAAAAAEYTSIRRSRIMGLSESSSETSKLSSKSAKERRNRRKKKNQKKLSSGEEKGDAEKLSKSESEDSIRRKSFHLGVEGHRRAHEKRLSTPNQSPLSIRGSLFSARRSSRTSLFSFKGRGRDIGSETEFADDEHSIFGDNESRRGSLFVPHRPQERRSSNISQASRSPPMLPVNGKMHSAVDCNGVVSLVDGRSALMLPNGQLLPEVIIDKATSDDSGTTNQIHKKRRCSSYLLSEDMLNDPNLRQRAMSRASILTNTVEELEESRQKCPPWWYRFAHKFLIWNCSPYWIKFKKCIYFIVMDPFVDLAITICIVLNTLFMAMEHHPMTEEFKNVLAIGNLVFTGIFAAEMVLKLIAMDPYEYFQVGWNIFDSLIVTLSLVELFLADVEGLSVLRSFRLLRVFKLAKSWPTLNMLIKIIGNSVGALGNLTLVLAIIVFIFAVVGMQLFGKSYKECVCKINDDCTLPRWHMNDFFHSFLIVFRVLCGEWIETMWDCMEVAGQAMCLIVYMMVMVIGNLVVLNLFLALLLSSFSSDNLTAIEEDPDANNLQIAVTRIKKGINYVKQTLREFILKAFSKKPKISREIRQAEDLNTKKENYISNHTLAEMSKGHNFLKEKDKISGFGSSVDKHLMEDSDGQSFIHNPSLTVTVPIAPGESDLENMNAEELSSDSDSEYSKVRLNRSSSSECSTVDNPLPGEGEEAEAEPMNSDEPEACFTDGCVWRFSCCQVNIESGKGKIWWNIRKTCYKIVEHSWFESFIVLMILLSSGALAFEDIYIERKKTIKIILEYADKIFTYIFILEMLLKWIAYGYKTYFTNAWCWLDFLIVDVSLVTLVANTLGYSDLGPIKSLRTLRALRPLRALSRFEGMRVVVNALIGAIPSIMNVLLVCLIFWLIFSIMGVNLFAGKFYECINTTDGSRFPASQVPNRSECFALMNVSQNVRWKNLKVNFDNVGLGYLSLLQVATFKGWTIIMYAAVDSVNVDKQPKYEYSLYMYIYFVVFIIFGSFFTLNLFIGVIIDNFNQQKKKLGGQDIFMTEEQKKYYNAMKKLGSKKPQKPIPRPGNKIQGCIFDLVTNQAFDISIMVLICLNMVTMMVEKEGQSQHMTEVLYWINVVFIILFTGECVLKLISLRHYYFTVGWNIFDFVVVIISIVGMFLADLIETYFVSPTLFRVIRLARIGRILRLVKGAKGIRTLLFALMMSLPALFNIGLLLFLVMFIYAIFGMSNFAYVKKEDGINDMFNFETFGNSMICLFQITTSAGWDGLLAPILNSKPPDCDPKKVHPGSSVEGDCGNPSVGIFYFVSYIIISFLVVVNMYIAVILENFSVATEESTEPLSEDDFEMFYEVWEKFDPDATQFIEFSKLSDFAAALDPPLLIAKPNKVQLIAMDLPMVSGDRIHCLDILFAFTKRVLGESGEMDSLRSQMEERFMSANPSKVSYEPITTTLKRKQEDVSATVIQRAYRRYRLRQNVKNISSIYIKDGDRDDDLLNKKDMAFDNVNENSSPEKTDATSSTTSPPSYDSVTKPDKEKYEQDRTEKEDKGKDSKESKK

SMILES | IC50 [nM]
COc1cc(OC(F)(F)F)ccc1CNC(=O)c1ccnc(NC(=O)C(C)C)c1 [Example 869, 2-isobutyramido-N-(2-methoxy-4-(trifluoromethoxy)benzyl)isonicotinamide] | < 1000
COc1cc(OC(F)(F)F)ccc1CNC(=O)c1cc(C)nc(NC(C)=O)c1 [Example 870, 2-acetamido-N-(2-methoxy-4-(trifluoromethoxy)benzyl)-6-methylisonicotinamide] | < 1000
COc1cc(OC(F)(F)F)ccc1CNC(=O)c1cc(C)nc(NC(=O)C(C)C)c1 [Example 871, 2-isobutyramido-N-(2-methoxy-4-(trifluoromethoxy)benzyl)-6-methylisonicotinamide] | < 1000
Cc1cc(C(=O)NCc2cccc(C(F)(F)F)c2F)cc(NC(=O)C(C)C)n1 [Example 876, N-(2-fluoro-3-(trifluoromethyl)benzyl)-2-isobutyramido-6-methylisonicotinamide] | < 1000
Cc1cc(C(=O)NCc2cccc(C(F)(F)F)c2Cl)cc(NC(=O)C(C)C)n1 [Example 878, N-(2-chloro-3-(trifluoromethyl)benzyl)-2-isobutyramido-6-methylisonicotinamide] | < 1000
Cc1cc(C(=O)NCc2cccc(C(F)(F)F)c2C)cc(NC(=O)C(C)C)n1 [Example 879, 2-isobutyramido-6-methyl-N-(2-methyl-3-(trifluoromethyl)benzyl)isonicotinamide] | < 1000
CCC(=O)Nc1cc(C(=O)NCc2ccc(OCC(F)(F)F)c(OC)c2)ccn1 [Example 882, N-(3-methoxy-4-(2,2,2-trifluoroethoxy)benzyl)-2-propionamidoisonicotinamide] | < 1000
COc1cc(CNC(=O)c2cc(C)nc(NC(C)=O)c2)ccc1OCC(F)(F)F [Example 884, 2-acetamido-N-(3-methoxy-4-(2,2,2-trifluoroethoxy)benzyl)-6-methylisonicotinamide] | < 1000
COc1cc(CNC(=O)c2cc(C)nc(NC(=O)C(C)C)c2)ccc1OCC(F)(F)F [Example 885, 2-isobutyramido-N-(3-methoxy-4-(2,2,2-trifluoroethoxy)benzyl)-6-methylisonicotinamide] | < 1000
CC(C)C(=O)Nc1cc(C(=O)NCc2cnc(OCC(F)(F)F)c(Br)c2)ccn1 [Example 897, N-((5-bromo-6-(2,2,2-trifluoroethoxy)pyridin-3-yl)methyl)-2-isobutyramidoisonicotinamide] | < 1000
Cc1cc(C(=O)NCc2cnc(OCC(F)(F)F)c(Br)c2)cc(NC(=O)C2CC2)n1 [Example 900, N-((5-bromo-6-(2,2,2-trifluoroethoxy)pyridin-3-yl)methyl)-2-(cyclopropanecarboxamido)-6-methylisonicotinamide] | < 1000
Cc1cc(C(=O)NCc2cnc(OCC(F)(F)F)c(Br)c2)cc(NC(=O)C(C)C)n1 [Example 901, N-((5-bromo-6-(2,2,2-trifluoroethoxy)pyridin-3-yl)methyl)-2-isobutyramido-6-methylisonicotinamide] | < 1000
CCc1cc(CNC(=O)c2ccnc(NC(=O)C(C)C)c2)cnc1OCC(F)F [Example 910, N-((6-(2,2-difluoroethoxy)-5-ethylpyridin-3-yl)methyl)-2-isobutyramidoisonicotinamide] | < 1000
CCc1cc(CNC(=O)c2ccnc(NC(=O)C3CC3)n2)cnc1OCC(F)F [Example 912, 2-(cyclopropanecarboxamido)-N-((6-(2,2-difluoroethoxy)-5-ethylpyridin-3-yl)methyl)pyrimidine-4-carboxamide] | < 1000
CCc1cc(CNC(=O)c2ccnc(NC(=O)C3CC3)c2)cnc1OCC(F)F [Example 931, 2-(cyclopropanecarboxamido)-N-((6-(2,2-difluoroethoxy)-5-ethylpyridin-3-yl)methyl)isonicotinamide] | < 1000
CCc1cc(CNC(=O)c2cc(C)nc(NC(C)=O)c2)cnc1OCC(F)F [Example 932, 2-acetamido-N-((6-(2,2-difluoroethoxy)-5-ethylpyridin-3-yl)methyl)-6-methylisonicotinamide] | < 1000
CCCC(=O)Nc1cc(C(=O)NCc2cnc(OCC(F)F)c(CC)c2)ccn1 [Example 933, 2-butyramido-N-((6-(2,2-difluoroethoxy)-5-ethylpyridin-3-yl)methyl)isonicotinamide] | < 1000
CC(=O)Nc1cc(C(=O)NCc2ccc(OCC(F)F)c(C)c2)ccn1 [Example 988, 2-acetamido-N-(4-(2,2-difluoroethoxy)-3-methylbenzyl)isonicotinamide] | < 1000
CCC(=O)Nc1cc(C(=O)NCc2ccc(OCC(F)F)c(C)c2)ccn1 [Example 989, N-(4-(2,2-difluoroethoxy)-3-methylbenzyl)-2-propionamidoisonicotinamide] | < 1000
Cc1cc(CNC(=O)c2ccnc(NC(=O)C3CC3)c2)ccc1OCC(F)F [Example 990, 2-(cyclopropanecarboxamido)-N-(4-(2,2-difluoroethoxy)-3-methylbenzyl)isonicotinamide] | < 1000

SMILES | IC50 [nM]
Cc1cc(CNC(=O)c2ccnc(NC(=O)C(C)C)c2)ccc1OCC(F)F [Example 991, N-(4-(2,2-difluoroethoxy)-3-methylbenzyl)-2-isobutyramidoisonicotinamide] | < 1000
Cc1cc(CNC(=O)c2ccnc(NC(=O)C3CC3)n2)ccc1OCC(F)F [Example 992, 2-(cyclopropanecarboxamido)-N-(4-(2,2-difluoroethoxy)-3-methylbenzyl)pyrimidine-4-carboxamide] | < 1000
CC(=O)Nc1cc(C(=O)NCc2ccc(OCC(F)F)c(C)c2)cc(C)n1 [Example 993, 2-acetamido-N-(4-(2,2-difluoroethoxy)-3-methylbenzyl)-6-methylisonicotinamide] | < 1000
Cc1cc(C(=O)NCc2ccc(OCC(F)F)c(C)c2)cc(NC(=O)C(C)C)n1 [Example 994, N-(4-(2,2-difluoroethoxy)-3-methylbenzyl)-2-isobutyramido-6-methylisonicotinamide] | < 1000
Cc1cc(C(=O)NCc2ccc(OCC(F)F)c(C)c2)nc(NC(=O)C2CC2)n1 [Example 996, 2-(cyclopropanecarboxamido)-N-(4-(2,2-difluoroethoxy)-3-methylbenzyl)-6-methylpyrimidine-4-carboxamide] | < 1000
CCC(=O)Nc1cc(C(=O)NCc2ccc(OCC(F)F)c(Cl)c2)ccn1 [Example 998, N-(3-chloro-4-(2,2-difluoroethoxy)benzyl)-2-propionamidoisonicotinamide] | < 1000
Cc1cc(C(=O)NCc2ccc(OCC(F)F)c(Cl)c2)cc(NC(=O)C(C)C)n1 [Example 1003, N-(3-chloro-4-(2,2-difluoroethoxy)benzyl)-2-isobutyramido-6-methylisonicotinamide] | < 1000
CC(=O)Nc1cc(C(=O)NCc2ccc(OCC(F)F)cc2C)cc(C)n1 [Example 1007, 2-acetamido-N-(4-(2,2-difluoroethoxy)-2-methylbenzyl)-6-methylisonicotinamide] | < 1000
Cc1cc(C(=O)NCc2ccc(OCC(F)F)cc2C)cc(NC(=O)C(C)C)n1 [Example 1008, N-(4-(2,2-difluoroethoxy)-2-methylbenzyl)-2-isobutyramido-6-methylisonicotinamide] | < 1000
CCC(=O)Nc1cc(C(=O)NCc2cccc(C(F)(F)F)c2F)ccn1 [Example 1012, N-(2-fluoro-3-(trifluoromethyl)benzyl)-2-propionamidoisonicotinamide] | < 1000
CCC(=O)Nc1cc(C(=O)NCc2cccc(C(F)(F)F)c2OC)ccn1 [Example 1017, N-(2-methoxy-3-(trifluoromethyl)benzyl)-2-propionamidoisonicotinamide] | < 1000
Cc1cc(C(=O)NCc2ccc(OCC(F)F)cc2Cl)cc(NC(=O)C(C)C)n1 [Example 1049, N-(2-chloro-4-(2,2-difluoroethoxy)benzyl)-2-isobutyramido-6-methylisonicotinamide] | < 1000
COc1cc(CNC(=O)c2ccnc(NC(C)=O)c2)ccc1OCC(F)(F)F [Example 1078, 2-acetamido-N-(3-methoxy-4-(2,2,2-trifluoroethoxy)benzyl)isonicotinamide] | < 1000
CC(=O)Nc1cc(C(=O)NCc2cnc(OCC(F)F)c(C3CC3)c2)cc(C)n1 [Example 1082, 2-acetamido-N-((5-cyclopropyl-6-(2,2-difluoroethoxy)pyridin-3-yl)methyl)-6-methylisonicotinamide] | < 1000
COc1cc(CNC(=O)c2ccnc(NC(=O)C3CC3)c2)ccc1OCC(F)(F)F [Example 1102, 2-(cyclopropanecarboxamido)-N-(3-methoxy-4-(2,2,2-trifluoroethoxy)benzyl)isonicotinamide] | < 1000
Cc1cc(C(=O)NCc2cccc(OCC(F)F)c2C)cc(NC(=O)C(C)C)n1 [Example 1131, N-(3-(2,2-difluoroethoxy)-2-methylbenzyl)-2-isobutyramido-6-methylisonicotinamide] | < 1000
Cc1cc(C(=O)NCc2cnc(OCC(F)(F)F)c(Cl)c2)nc(NC(=O)C2CC2)n1 [Example 1147, N-((5-chloro-6(2,2,2-trifluoroethoxy)pyridin-3-yl)methyl)-2-(cyclopropanecarboxamido)-6-methylpyrimidine-4-carboxamide] | < 1000
CCC(=O)Nc1cc(C(=O)NCc2ccc(OCC(F)F)nc2OC)ccn1 [Example 1152, N-((6-(2,2-difluoroethoxy)-2-methoxypyridin-3-yl)methyl)-2-propionamidoisonicotinamide] | < 1000
COc1nc(OCC(F)F)ccc1CNC(=O)c1ccnc(NC(=O)C2CC2)c1 [Example 1153, 2-(cyclopropanecarboxamido)-N-((6-(2,2-difluoroethoxy)-2-methoxypyridin-3-yl)methyl)isonicotinamide] | < 1000
COc1nc(OCC(F)F)ccc1CNC(=O)c1ccnc(NC(=O)C(C)C)c1 [Example 1154, N-((6-(2,2-difluoroethoxy)-2-methoxypyridin-3-yl)methyl)-2-isobutyramidoisonicotinamide] | < 1000

Source: patent US9302991B2, “Arylamide derivatives as TTX-S blockers” (RaQualia Pharma Inc., priority 2010, dated 2016)
